Legend:
Type in all cases: cell-based
[1] = target: T1, human prostanoid EP3 receptor (Homo sapiens, UniProt P43115); test: FLIPR Ca2+ signaling PG antagonist assay, EP3 stable cell line; settings: HEK-293 EBNA cells, human recombinant EP3 with chimeric Gqi; standard agonist PGE2
T1 construct: expressed in transfected cells
T1 sequence (P43115 1-390): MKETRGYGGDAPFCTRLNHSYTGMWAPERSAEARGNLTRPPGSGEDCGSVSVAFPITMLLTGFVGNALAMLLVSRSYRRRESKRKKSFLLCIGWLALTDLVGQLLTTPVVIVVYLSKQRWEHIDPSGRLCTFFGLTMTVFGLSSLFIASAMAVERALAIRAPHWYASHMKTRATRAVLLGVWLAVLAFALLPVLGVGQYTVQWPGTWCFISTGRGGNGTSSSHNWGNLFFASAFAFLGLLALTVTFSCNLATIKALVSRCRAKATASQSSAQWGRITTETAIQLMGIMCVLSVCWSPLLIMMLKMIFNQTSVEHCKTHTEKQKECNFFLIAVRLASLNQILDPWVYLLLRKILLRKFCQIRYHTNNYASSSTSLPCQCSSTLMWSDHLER
Description: The above compounds were tested for PG antagonist activity as follows using human recombinant prostanoid receptor (DP1, EP1-4, FP, IP and TP) stable cell lines: In order to measure the response of Gs and Gi coupled prostanoid receptors as a Ca^2+ signal, chimeric G protein cDNAs were used. Stable cell lines over-expressing human prostanoid DP1, EP1-4, FP, IP, and TP receptors were established as follows:
Briefly, human prostanoid DP1, EP2, and EP4 receptor cDNAs were co-transfected with chimeric Gqs cDNA containing a haemagglutanin (HA) epitope; human prostanoid EP3 receptors were co-transfected with chimeric Gqi-HA; human EP1, FP, IP, and TP receptor cDNAs were expressed with no exogenous G-proteins. Gqs and Gqi chimeric cDNAs (Molecular Devices, Sunnyvale, Calif., U.S.A.), as well as cDNAs of prostanoid receptors, were cloned into a pCEP4 vector with a hygromycin B selection marker. Transfection into HEK-293 EBNA (Epstein-Barr virus nuclear antigen) cells was achieved by the FuGENE 6 transfection Reagent (Roche Applied Science, Indianapolis, Ind., USA). Stable transfectants were selected according to hygromycin resistance. Because Gqs and Gqi contained an HA epitope, G-protein expression was detected by Western blotting analysis using anti-mouse HA monoclonal antibody and horseradish peroxidase (HRP)-conjugated secondary antibody, while functional expression of prostanoid receptors was detected by FLIPR screening (Matias et al., 2004). These stable cell lines were validated using previously published antagonists at 10 μM against serial dilutions of standard agonists by FLIPR functional assays for Ca^2+ Signaling (as described below).
Ca^2+ signaling studies were performed using a FLIPR TETRA system (Molecular Devices, Sunnyvale, Calif., USA) in the 384-format. This is a high-throughput instrument for cell-based assays to monitor Ca^2+ signaling associated with GPCRs and ion channels. Cells were seeded at a density of 5×10^4 cells/well in BioCoat poly-D-lysine coated, black wall, clear bottom 384-well plates (BD Biosciences, Franklin lakes, NJ, USA) and allowed to attach overnight in an incubator at 37° C. The cells were then washed twice with HBSS-HEPES buffer (Hanks' balanced salt solution without bicarbonate and phenol red, 20 mM HEPES, pH 7.4) using an ELx405 Select CW Microplate Washer (BioTek, Winooski, Vt., USA). After 60 min of dye-loading in the dark using the Ca^2+-sensitive dye Fluo-4AM (Invitrogen, Carlsbad, Calif., USA), at a final concentration of 2×10^−6M, the plates were washed 4 times with HBSS-HEPES buffer to remove excess dye and leaving 50 μl of buffer in each well. The plates were then placed in the FLIPR TETRA instrument and allowed to equilibrate at 37° C. Compounds were added in a 25 μl volume to each well to give final concentrations of 0.1 μM, 0.3 μM, 1 μM, 3 μM, 10 μM, and 30 μM; or 0.067 μM, 0.1 μM, 0.2 μM, 0.3 μM, 0.67 μM, and 1 μM for cells over-expressing TP receptors. After 4.5 minutes, a 7-point serial dilution of the standard agonist for the corresponding receptor, in a 25 μl volume was injected at the final concentrations from 10^−11M to 10^−5M in 10-fold serial dilution increments for cells expressing human recombinant DP1, EP1, EP2, EP3, EP4, FP, and IP receptors. The dose range for the standard agonist for human recombinant TP receptors was from 10^−12M to 10^−6M. HBSS-HEPES buffer was used as the negative control for the standard agonists. Cells were excited with LED (light emitting diode) excitation at 470-495 nm and emission was measured through an emission filter at 515-575 nm. Assay plates were read for 3.5 minutes using the FLIPR^TETRA. The peak increase in fluorescence intensity was recorded for each well. On each plate, negative controls, dose response of positive controls, and co-treatments of antagonist-agonist for each dose were in triplicates. Standard agonists were as follows: DP=BW 245C, EP1-EP4=PGE2, FP=17-phenyl-PGF2α, IP=Cicaprost, and TP=U-46619. […]

[2] = target: T2, human prostanoid IP receptor (Homo sapiens, UniProt P43119); test: FLIPR Ca2+ signaling PG antagonist assay, IP stable cell line; settings: HEK-293 EBNA cells, human recombinant IP, no exogenous G-protein; standard agonist Cicaprost
T2 construct: expressed in transfected cells
T2 sequence (P43119 whole entry): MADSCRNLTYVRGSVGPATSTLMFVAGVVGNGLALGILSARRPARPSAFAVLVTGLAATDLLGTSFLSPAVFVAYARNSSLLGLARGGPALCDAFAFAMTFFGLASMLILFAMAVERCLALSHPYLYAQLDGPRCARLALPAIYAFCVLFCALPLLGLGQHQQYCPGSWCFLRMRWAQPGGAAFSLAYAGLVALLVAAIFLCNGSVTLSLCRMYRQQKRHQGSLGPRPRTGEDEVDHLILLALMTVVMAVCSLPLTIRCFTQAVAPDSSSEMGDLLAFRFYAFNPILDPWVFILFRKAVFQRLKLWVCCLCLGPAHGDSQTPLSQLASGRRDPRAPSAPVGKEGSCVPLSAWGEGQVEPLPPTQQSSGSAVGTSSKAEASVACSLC
In short: (§1)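 HEK-293 EBNA stable lines; EP2 co-expressed with chimeric Gqs, EP1/IP/TP with no exogenous G protein. Fluo-4AM-loaded cells pretreated 4.5 min at 37 °C with compound (0.1–30 μM; TP 0.067–1 μM), then standard agonist (PGE2, cicaprost, U-46619) 10^−11–10^−5 M (TP 10^−12–10^−6 M); peak fluorescence read 3.5 min, nonlinear regression.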

[3] = target: T3, human prostanoid TP receptor (Homo sapiens, UniProt P21731); test: FLIPR Ca2+ signaling PG antagonist assay, TP stable cell line; settings: HEK-293 EBNA cells, human recombinant TP, no exogenous G-protein; standard agonist U-46619
T3 construct: expressed in transfected cells
T3 sequence (P21731 1-343): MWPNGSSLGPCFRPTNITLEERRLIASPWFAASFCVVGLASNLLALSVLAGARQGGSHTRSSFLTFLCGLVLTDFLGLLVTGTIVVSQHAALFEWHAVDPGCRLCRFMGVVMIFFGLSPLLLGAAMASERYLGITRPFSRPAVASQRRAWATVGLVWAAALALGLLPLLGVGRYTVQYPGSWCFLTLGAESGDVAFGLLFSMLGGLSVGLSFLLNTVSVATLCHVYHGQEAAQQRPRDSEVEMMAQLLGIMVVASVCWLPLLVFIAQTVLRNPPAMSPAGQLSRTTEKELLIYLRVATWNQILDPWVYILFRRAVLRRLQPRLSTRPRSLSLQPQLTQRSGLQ
In short: as §1

Row | Structure (SMILES) | Kb [1] [nM] | Kb [2] [nM] | Kb [3] [nM]
1 | CC(C)(O)COc1ccc(Br)cc1Cn1ncc2cc(C(=O)O)ccc21 [Example 53, 1-[5-Bromo-2-(2-Hydroxy-2-Methyl-Propoxy)-Benzyl]-1H-Indazole-5-Carboxylic Acid] | ≥ 10000 | ≥ 10000 | 1200
2 | CC(C)COc1ccc(O)cc1Cn1ncc2cc(C(=O)O)ccc21 [Example 54] | ≥ 10000 | ≥ 10000 | 640
3 | CC(C)COc1ccc(OCC(F)F)cc1Cn1ncc2cc(C(=O)O)ccc21 [Example 55, 1-[5-(2,2-Difluoro-Ethoxy)-2-Isobutoxy-Benzyl]-1H-Indazole-5-Carboxylic Acid] | ≥ 10000 | ≥ 10000 | 300
4 | CC(C)COc1ccc(OC(F)F)cc1Cn1ncc2cc(C(=O)O)ccc21 [Example 56, 1-(5-Difluoromethoxy-2-Isobutoxy-Benzyl)-1H-Indazole-5-Carboxylic Acid] | 8800 | 4100 | 5
5 | CC(C)COc1ccc(Cl)cc1Cn1ncc2cc(C(=O)O)cnc21 [Example 57, 1-(5-Chloro-2-Isobutoxy-Benzyl)-1H-Pyrazolo[3,4-B]Pyridine-5-Carboxylic Acid] | ≥ 10000 | ≥ 10000 | 150
6 | CC(C)COc1ccc(OC(F)(F)F)cc1Cn1ncc2cc(C(=O)O)cnc21 [Example 58, 1-(2-Isobutoxy-5-Trifluoromethoxy-Benzyl)-1H-Pyrazolo[3,4-B]Pyridine-5-Carboxylic Acid] | 9800 | ≥ 10000 | 70
7 | CCC(CC)COc1ccc(Br)cc1Cn1nc(C)c2cc(C(=O)O)cnc21 [Example 59, 1-[5-Bromo-2-(2-Ethyl-Butoxy)-Benzyl]-3-Methyl-1H-Pyrazolo[3,4-B]Pyridine-5-Carboxylic Acid] | 5400 | 540 | 320
8 | CCC(CC)COc1ccc(Cl)cc1Cn1nc(C)c2cc(C(=O)O)cnc21 [Example 60, 1-[5-Chloro-2-(2-Ethyl-Butoxy)-Benzyl]-3-Methyl-1H-Pyrazolo[3,4-B]Pyridine-5-Carboxylic Acid] | 5100 | 630 | 410
9 | Cc1nn(Cc2cc(Cl)ccc2OCC(C)C)c2ncc(C(=O)O)cc12 [Example 61, 1-(5-Chloro-2-Isobutoxy-Benzyl)-3-Methyl-1H-Pyrazolo[3,4-B]Pyridine-5-Carboxylic Acid] | ≥ 10000 | 1750 | 300
10 | CCC(CC)COc1ccc(Cl)cc1Cn1ncc2cc(C(N)=O)ncc21 [Example 62, 1-[5-Chloro-2-(2-Ethyl-Butoxy)-Benzyl]-1H-Pyrazolo[3,4-C]Pyridine-5-Carboxylic Acid Amide] | ≥ 10000 | ≥ 10000 | ≥ 10000
11 | CCC(CC)COc1ccc(Cl)cc1Cn1ncc2cc(C(=O)O)ncc21 [Example 63, 1-[5-Chloro-2-(2-Ethyl-Butoxy)-Benzyl]-1H-Pyrazolo[3,4-C]Pyridine-5-Carboxylic Acid] | 7400 | 5000 | 180
12 | CCc1nn(Cc2cc(Br)ccc2OCC(C)C)c2ccc(C(=O)O)cc12 [Example 64, 1-(5-Bromo-2-Isobutoxy-Benzyl)-3-Ethyl-1H-Indazole-5-Carboxylic Acid] | 2900 | 700 | 8
13 | CCc1nn(Cc2cc(Br)ccc2OCC(CC)CC)c2ccc(C(=O)O)cc12 [Example 65, 1-[5-Bromo-2-(2-Ethyl-Butoxy)-Benzyl]-3-Ethyl-1H-Indazole-5-Carboxylic Acid] | 4700 | 880 | 52
14 | Cc1cc2cc(C(=O)O)ccc2n1Cc1cc(Br)ccc1OCC(C)C [Example 66, 1-(5-Bromo-2-Isobutoxy-Benzyl)-2-Methyl-1H-Indole-5-Carboxylic Acid] | ≥ 10000 | 4600 | 320
15 | CC(C)COc1ccc(Br)cc1Cn1ccc2cc(C(=O)O)ccc21 [Example 67, 1-(5-Bromo-2-Isobutoxy-Benzyl)-1H-Indole-5-Carboxylic Acid] | ≥ 10000 | ≥ 10000 | 160
16 | CCC(CC)COc1ccc(Br)cc1Cn1c(C)cc2cc(C(=O)O)ccc21 [Example 68, 1-[5-Bromo-2-(2-Ethyl-Butoxy)-Benzyl]-2-Methyl-1H-Indole-5-Carboxylic Acid] | ≥ 10000 | 6600 | ≥ 10000
17 | CCC(CC)COc1ccc(Br)cc1Cn1ccc2cc(C(=O)O)ccc21 [Example 69, 1-[5-Bromo-2-(2-Ethyl-Butoxy)-Benzyl]-1H-Indole-5-Carboxylic Acid] | 7900 | 3000 | 550
18 | CCC(CC)COc1ccc(Br)cc1Cn1ccc2ccc(C(=O)O)cc21 [Example 70, 1-[5-Bromo-2-(2-Ethyl-Butoxy)-Benzyl]-1H-Indole-6-Carboxylic Acid] | ≥ 10000 | ≥ 10000 | 320
19 | CC(C)COc1ccc(OC(F)(F)F)cc1Cn1ccc2cc(C(=O)O)ccc21 [Example 71, 1-(2-Isobutoxy-5-Trifluoromethoxy-Benzyl)-1H-Indole-5-Carboxylic Acid] | ≥ 10000 | ≥ 10000 | 600
20 | CC(C)COc1ccc(Br)cc1Cn1ccc2cc(C(=O)O)cnc21 [Example 72, 1-(5-Bromo-2-Isobutoxy-Benzyl)-1H-Pyrrolo[2,3-B]Pyridine-5-Carboxylic Acid] | ≥ 10000 | 2000 | 3
21 | CC(C)COc1ccc(Br)cc1Cn1ccc2nc(C(=O)O)ccc21 [Example 73, 1-(5-Bromo-2-Isobutoxy-Benzyl)-1H-Pyrrolo[3,2-B]Pyridine-5-Carboxylic Acid] | ≥ 10000 | 9000 | 8
